Patent publication US5760092A, “Allocolchinones and uses thereof” (Brandeis University, priority 1996, dated 1998)
Several values for one entry are separate records, joined by “and”; a condition that tells them apart may be missing. Identical values can stand only once. Like-named read-outs stand apart in the source and are kept apart here.

Legend:
tubulin = assay: Binding to tubulin

COc1cc2c(c(OC)c1OC)-c1ccc(C(C)=O)cc1C(NC(C)=O)CC2 (stereo not shown)
Percent Growth (SNB-19 CNS cancer cells; log10 conc -4.0, 100 µM): 6%
Percent Growth (SNB-19 CNS cancer cells; log10 conc -5.0): 7%
Percent Growth (SNB-19 CNS cancer cells; log10 conc -6.0, 1 µM): 36%
Percent Growth (SNB-19 CNS cancer cells; log10 conc -8.0, 0.01 µM): 25% and 16%
Percent Growth (SNB-19 CNS cancer cells; log10 conc -9.0, 0.001 µM): 63%
Percent Growth (SNB-19 CNS cancer cells; log10 conc -10.0, 0.0001 µM): 99%
binding to tubulin (tubulin): reversible
